Assay results published in patent US12145930B1, “4-thiazolidinone derivatives as EGFR inhibitors for anti-tumor activity” (KING FAISAL UNIVERSITY, priority 2024, dated 2024).
Entries after “also recorded” stand apart in the source; their conditions may differ.

How the values were obtained:
[1] = target: EGFR (Homo sapiens, UniProt P00533); assay: EGFR inhibition assay (Alpha Screen system); format: biochemical; conditions: Gefitinib as standard
[2] = system: PC3 (prostate) carcinoma cell line; assay: antiproliferative growth assay, PC3; format: cell-based, human; conditions: PC3 prostate carcinoma cells
Excerpt: It is noteworthy that most of these compounds belong to the thiazolidine library.

[3] = system: MCF7 (breast) carcinoma cell line; assay: antiproliferative growth assay, MCF7; format: cell-based, human
[4] = system: HCT-116 (colon) carcinoma cell line; assay: antiproliferative growth assay, HCT-116; format: cell-based, human; conditions: for IC50: HCT116 colon carcinoma cells; for potency against colon cancer relative to the standard reference (5-fluorouracil): HCT-116, compared with 5-fluorouracil
[5] = system: MCF7 cells; assay: cell cycle analysis by flow cytometry; format: cell-based, human; conditions: 24 hours
Excerpt: Typical neoplastic cells evade apoptosis since accumulation of mutations block apoptosis pathways. It was confirmed that the induction of apoptosis upon effective cancer treatment. It is an important regulatory mechanism in cell growth, maturation and death and is associated with a variety of human diseases, including tumors. Chemotherapy agents may lead to an autophagic response, which is one possible method of inducing apoptosis. There is a unique association between autophagy and apoptosis. While chemotherapeutic drugs induce autophagy, cell cycle arrest and cell senescence, it is imperative the induction of apoptosis and permanent removal of neoplastic cells for effective cancer treatment. Studies on the effect of compound 10 on cell cycle development and induction of apoptosis in cancer MCF7 cells was carried out. […] The cells were analyzed by flow cytometry technique.

[6] = system: MCF7 cells; assay: apoptosis assay, Annexin V/PI; format: cell-based, human; conditions: 24 h
Excerpt: It has been detected that the early and late apoptosis produced by the examined compound 10 certainly indicated its capability to induce significant levels of apoptosis with necrosis percent 3.14.

[7] = Homo sapiens, MCF7, MCF7 breast carcinoma cells

Compound | IC50 ([2]; Homo sapiens) [µM] | IC50 [3, 7] [µM] | IC50 ([4]; Homo sapiens, HCT-116) [µM] | also measured
4-(5-(((1H-1,2,4-triazol-3-yl)amino) methylene)-3-benzoyl-4-oxothiazolidin-2-ylidene)amino)benzoic acid [Compound 11] |  |  |  | IC50 [1]: 0.0739 ± 0.0016 µM
4-((3-benzoyl-5-(5-((4-chlorophenyl)diazenyl)-2-hydroxybenzylidene)-4-oxothiazolidin-2-ylidene)amino)benzoic acid [Compound 9c] |  |  |  | IC50 [2]: > 100 µM; IC50 [1]: 0.168 ± 0.0036 µM; IC50 ([3]; MCF7 breast carcinoma cells): 38 µM; IC50 [4]: 19.6 µM; potency against colon cancer relative to the standard reference (5-fluorouracil) [4]: higher potency against colon cancer relative to the standard reference
4-((3-benzoyl-5-((dimethylamino)methylene)-4-oxothiazolidin-2-ylidene)amino) benzoic acid [Compound 10] |  |  |  | IC50 [1]: 0.0674 µM
O=C(O)c1ccc(/N=C2\SCC(=O)N2C(=O)c2ccccc2)cc1 [Compound 4, 4-((3-benzoyl-4-oxothiazolidin-2-ylidene)amino)benzoic acid] | > 100 | > 100 | > 100 | 
O=C(O)c1ccc(/N=C2\S/C(=C/c3ccccc3)C(=O)N2C(=O)c2ccccc2)cc1 [Compound 6a, 4-((3-benzoyl-5-(benzylidene)-4-oxothiazolidin-2-ylidene)amino)benzoic acid] | > 100 | > 100 | > 100 | 
O=C(O)c1ccc(/N=C2\S/C(=C/c3ccc(O)cc3)C(=O)N2C(=O)c2ccccc2)cc1 [Compound 6b, 4-((3-benzoyl-5-(4-hydroxybenzylidene)-4-oxothiazolidin-2-ylidene)amino)benzoic acid] | > 100 | > 100 | > 100 | 
O=C(O)c1ccc(/N=C2\S/C(=C/c3ccc(O)cc3O)C(=O)N2C(=O)c2ccccc2)cc1 [Compound 6c, 4-((3-benzoyl-5-(2,4-dihydroxybenzylidene)-4-oxothiazolidin-2-ylidene)amino) benzoic acid] | > 100 | > 100 | > 100 | 
COc1ccc(/C=C2/S/C(=N\c3ccc(C(=O)O)cc3)N(C(=O)c3ccccc3)C2=O)cc1 [Compound 6d, 4((3-benzoyl-5-(4-methoxybenzylidene)-4-oxothiazolidin-2-ylidene)amino) benzoic acid] | > 100 |  | 12.4 | IC50 [1]: 0.134 ± 0.0029 µM; IC50 ([3]; MCF7 breast carcinoma cells): 34.4 µM; potency against colon cancer relative to the standard reference (5-fluorouracil) [4]: higher potency against colon cancer relative to the standard reference
COc1cc(/C=C2/S/C(=N\c3ccc(C(=O)O)cc3)N(C(=O)c3ccccc3)C2=O)cc(OC)c1 [Compound 6e, 4-((3-benzoyl-5-(3,5-dimethoxybenzylidene)-4-oxothiazolidin-2-ylidene)amino) benzoic acid] | > 100 | > 100 | > 100 | 
O=C(O)c1ccc(/N=C2\S/C(=C/c3ccc4ccccc4c3)C(=O)N2C(=O)c2ccccc2)cc1 [Compound 6g, 4-((3-benzoyl-5-(naphthalen-2-ylmethylene)-4-oxothiazolidin-2-ylidene)amino) benzoic acid] | > 100 | > 100 | > 100 | 
O=C(O)c1ccc(/N=C2\S/C(=C/c3c[nH]c4ccccc34)C(=O)N2C(=O)c2ccccc2)cc1 [Compound 6h, 4-((5-((1H-indol-3-yl)methylene)-3-benzoyl-4-oxothiazolidin-2-ylidene)amino) benzoic acid] | > 100 | > 100 | > 100 | 
CN(C)c1ccc(/C=C2/S/C(=N\c3ccc(C(=O)O)cc3)N(C(=O)c3ccccc3)C2=O)cc1 [Compound 6i, 4-((3-benzoyl-5-(4-(dimethylamino)benzylidene)-4-oxothiazolidin-2-ylidene)amino) benzoic acid] | > 100 | > 100 | > 100 | 
O=C(O)c1ccc(/N=C2\S/C(=C/c3cc(/N=N/c4ccccc4)ccc3O)C(=O)N2C(=O)c2ccccc2)cc1 [Compound 9a, 4-((3-benzoyl-5-(2-hydroxy-5-((E)-phenyldiazenyl)benzylidene)-4-oxothiazolidin-2-ylidene)amino) benzoic acid] | > 100 | > 100 | > 100 | 
COc1ccc(/N=N/c2ccc(O)c(/C=C3/S/C(=N\c4ccc(C(=O)O)cc4)N(C(=O)c4ccccc4)C3=O)c2)cc1 [Compound 9b, 4-((3-benzoyl-5-(2-hydroxy-5-((4-methoxyphenyl)diazenyl)benzylidene)-4-oxothiazolidin-2-ylidene)amino)benzoic acid] | > 100 | > 100 | > 100 | 
CN(C)/C=C1\S/C(=N\c2ccc(C(=O)O)cc2)N(C(=O)c2ccccc2)C1=O [Compound 10, 4-((3-benzoyl-5-((dimethylamino)methylene)-4-oxothiazolidin-2-ylidene)amino) benzoic acid] | 67.4 | 17.4 | 12.2 | potency against colon cancer relative to the standard reference (5-fluorouracil) [4]: higher potency against colon cancer relative to the standard reference; Comment (cell cycle result) [5]: cell cycle arrest at G1/S phase; also recorded: PreGlapoptosis&Cell; % G0-G1 ([5]; at IC50 concentration 12.17 μM): 38.71%; % G2/M ([5]; at IC50 concentration 12.17 μM): 28.85%; % Pre-G1 ([5]; at IC50 concentration 12.17 μM): 26.15%; % S ([5]; at IC50 concentration 12.17 μM): 32.44%; Apoptosis Early [6]: 6.41%; Apoptosis Late [6]: 16.6%; Necrosis [6]: 3.14%
O=C(O)c1ccc(/N=C2\S/C(=C/Nc3nc[nH]n3)C(=O)N2C(=O)c2ccccc2)cc1 [Compound 11] | 98.5 | 11.7 | 7.17 | potency against colon cancer relative to the standard reference (5-fluorouracil) [4]: higher potency against colon cancer relative to the standard reference; Apoptosis Early [6]: 6.41%; Apoptosis Late [6]: 16.6%; Apoptosis Total [6]: 26.15%; Necrosis [6]: 3.14%
